pIC50: −log10 of the molar value.
Experiments:
Assay type in all cases: biochemical
PIM1 [1] = target: T1, PIM1 (Homo sapiens, UniProt P11309); assay: Pim 1 AlphaScreen assay (high ATP); conditions: read-out: Pim1 IC50
Summary of the method: (§1)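 This is a bead-based AlphaScreen run at high ATP (11-125× Km) with biotin-Bad peptide (100 nM in the substrate mix), in 50 mM Hepes pH 7.5, 5 mM MgCl2, 0.05% BSA, 0.01% Tween-20, 1 mM DTT and 2.5% DMSO final. After ~2 h the reaction was stopped with EDTA. Phospho-peptide was detected overnight with anti-phospho Ser/Thr antibody on Protein A and streptavidin beads, giving IC50.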

PIM3 = PIM3 (Homo sapiens, UniProt Q86V86); assay: Pim 3 AlphaScreen assay (high ATP); conditions: read-out: Pim3 IC50
Summary of the method: as §1

PIM1 [2] = target: T1, PIM1; assay: KinaseGlo Pim1 ATP depletion assay
Summary of the method: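 2.5 nM PIM1 preincubated 15 min with compound and 40 μM BAD peptide in 50 mM HEPES pH 7.5, 5 mM MgCl2, 1 mM DTT, 0.05% BSA, 2.5% DMSO. The reaction was started with 20 μM ATP (final) and run to about 50% ATP depletion. Remaining ATP read by KinaseGlo Plus luminescence to give IC50.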

PIM2 = PIM2 (Homo sapiens, UniProt Q9P1W9); assay: KinaseGlo Pim2 ATP depletion assay
Summary of the method: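 Luminescent ATP-depletion read-out of PIM2 phosphorylating BAD peptide (RSRHSSYPAGT-OH). Final conditions: 5 nM PIM2, 4 μM ATP, 10 μM peptide, 2.5% DMSO in 50 mM HEPES pH 7.5, 5 mM MgCl2, 1 mM DTT, 0.05% BSA. Enzyme–peptide preincubated 15 min with compound; reaction run to ~50% ATP depletion.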

Chain of PIM2 (Q9P1W9 whole entry): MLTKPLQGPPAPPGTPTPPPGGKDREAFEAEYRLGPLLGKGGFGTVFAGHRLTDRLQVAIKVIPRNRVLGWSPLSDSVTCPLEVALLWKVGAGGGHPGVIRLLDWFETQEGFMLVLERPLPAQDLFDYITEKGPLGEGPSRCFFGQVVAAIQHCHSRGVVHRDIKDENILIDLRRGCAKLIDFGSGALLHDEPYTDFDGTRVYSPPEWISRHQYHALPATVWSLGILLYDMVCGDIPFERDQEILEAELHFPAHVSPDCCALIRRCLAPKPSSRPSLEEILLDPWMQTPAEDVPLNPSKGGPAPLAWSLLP
T1 sequence (P11309 whole entry): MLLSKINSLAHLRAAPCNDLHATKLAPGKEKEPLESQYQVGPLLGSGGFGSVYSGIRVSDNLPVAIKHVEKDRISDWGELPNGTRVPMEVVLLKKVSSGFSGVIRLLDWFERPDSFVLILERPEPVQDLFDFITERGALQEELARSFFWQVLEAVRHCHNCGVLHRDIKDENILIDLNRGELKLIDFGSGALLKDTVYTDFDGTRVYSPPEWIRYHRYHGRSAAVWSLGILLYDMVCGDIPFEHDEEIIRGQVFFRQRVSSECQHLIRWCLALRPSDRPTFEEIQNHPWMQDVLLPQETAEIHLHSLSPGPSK

Row | SMILES | pIC50 (PIM1 [1]) | pIC50 (PIM3) | pIC50 (PIM1 [2]) | pIC50 (PIM2)
1 | COc1cc(F)c(-c2nc(C(=O)Nc3cnccc3[C@H]3C[C@@H](N)[C@](C)(O)[C@@H](C)O3)ccc2F)c(F)c1 [Example 242, N-(4-((2R,4R,5S,6R)-4-amino-5-hydroxy-5,6-dimethyltetrahydro-2H-pyran-2-yl)pyridin-3-yl)-6-(2,6-difluoro-4-methoxyphenyl)-5-fluoropicolinamide] | 10.40 | 9.10 |  | 
2 | C[C@H]1O[C@@H](c2ccncc2NC(=O)c2nc(-c3ccccc3)cnc2N)C[C@@H](O)[C@]1(C)O [Example 84, 3-amino-N-(4-((2R,4R,5S,6R)-4,5-dihydroxy-5,6-dimethyltetrahydro-2H-pyran-2-yl)pyridin-3-yl)-6-phenylpyrazine-2-carboxamide] |  |  | 9.00 | 7.48
3 | C[C@H]1O[C@@H](c2ccncc2NC(=O)c2nc(-c3ccccc3)ncc2N)C[C@@H](O)[C@]1(C)O [Example 32, 5-amino-N-(4-((2R,4R,5S,6R)-4,5-dihydroxy-5,6-dimethyltetrahydro-2H-pyran-2-yl)pyridin-3-yl)-2-phenylpyrimidine-4-carboxamide] |  |  | 8.30 | 7.36
4 | Nc1ncc(-c2ccccc2)nc1C(=O)Nc1cnccc1[C@H]1C[C@@H](O)[C@@]2(O)CCCC[C@H]2O1 [Example 173, 3-amino-N-(4-((2R,4R,4aS,8aR)-4,4a-dihydroxyoctahydro-2H-chromen-2-yl)pyridin-3-yl)-6-phenylpyrazine-2-carboxamide] |  |  | 8.66 | 7.80
5 | Nc1ncc(-c2ccccc2)nc1C(=O)Nc1cnccc1[C@@H]1C[C@H](O)[C@]2(O)CCC[C@@H]2O1 [Example 186, 3-amino-N-(4-((2S,4S,4aR,7aS)-4,4a-dihydroxyoctahydrocyclopenta[b]pyran-2-yl)pyridin-3-yl)-6-phenylpyrazine-2-carboxamide] |  |  | 6.80 | 5.50
6 | N[C@H]1C[C@@H](c2ccncc2NC(=O)c2csc(-c3c(F)cccc3F)n2)O[C@H]2CCC[C@H]21 [Example 230, N-(4-((2S,4S,4aS,7aS)-4-aminooctahydrocyclopenta[b]pyran-2-yl)pyridin-3-yl)-2-(2,6-difluorophenyl)thiazole-4-carboxamide] | 8.17 | 6.32 |  | 
7 | C[C@H]1O[C@@H](c2ccncc2NC(=O)c2ccc(F)c(-c3c(F)cccc3F)n2)C[C@@H](N)[C@]1(C)O [Example 219, N-(4-((2R,4R,5S,6R)-4-amino-5-hydroxy-5,6-dimethyltetrahydro-2H-pyran-2-yl)pyridin-3-yl)-6-(2,6-difluorophenyl)-5-fluoropicolinamide] | 10.05 | 8.85 |  | 
8 | O=C(Nc1cnccc1[C@H]1C[C@@H](O)[C@@]2(O)CCCC[C@H]2O1)c1c[nH]cc(-c2ccccc2)c1=O [Example 178, N-(4-((2R,4R,4aS,8aR)-4,4a-dihydroxyoctahydro-2H-chromen-2-yl)pyridin-3-yl)-4-oxo-5-phenyl-1,4-dihydropyridine-3-carboxamide] |  |  | 6.81 | 5.66
9 | CC[C@H]1O[C@@H](c2ccncc2NC(=O)c2nc(-c3ccccc3)ncc2N)C[C@@H](O)[C@@H]1O [Example 39, 5-amino-N-(4-((2R,4R,5S,6R)-6-ethyl-4,5-dihydroxytetrahydro-2H-pyran-2-yl)pyridin-3-yl)-2-phenylpyrimidine-4-carboxamide] |  |  | 8.40 | 7.40
10 | Nc1cnc(-c2c(F)cccc2F)nc1C(=O)Nc1cnccc1[C@H]1C[C@@H](N)[C@@]2(O)CCC[C@H]2O1 [Example 213, 5-amino-N-(4-((2R,4R,4aS,7aR)-4-amino-4a-hydroxyoctahydrocyclopenta[b]pyran-2-yl)pyridin-3-yl)-2-(2,6-difluorophenyl)pyrimidine-4-carboxamide] |  |  | 8.41 | 8.20
11 | C=C1[C@@H](O)C[C@@H](c2ccncc2NC(=O)c2nc(-c3ccccc3)cnc2N)OC12CC2 [Example 5, 3-amino-N-(4-((5S,7S)-7-hydroxy-8-methylene-4-oxaspiro[2.5]octan-5-yl)pyridin-3-yl)-6-phenylpyrazine-2-carboxamide] |  |  | 7.59 | 6.60
12 | C[C@@H]1O[C@H](c2ccncc2NC(=O)c2nc(-c3ccccc3)cnc2N)[C@@H](F)[C@H](O)[C@@]1(C)O [Example 63, 3-amino-N-(4-((2R,3S,4R,5R,6S)-3-fluoro-4,5-dihydroxy-5,6-dimethyltetrahydro-2H-pyran-2-yl)pyridin-3-yl)-6-phenylpyrazine-2-carboxamide] |  |  | 8.22 | 6.03
13 | O=C1CC[C@H]2O[C@@H](c3ccncc3NC(=O)c3ccc(F)c(-c4c(F)cccc4F)n3)C[C@@H](O)[C@@H]2N1 [Example 196, 6-(2,6-difluorophenyl)-5-fluoro-N-(4-((2R,4R,4aS,8aR)-4-hydroxy-6-oxooctahydro-2H-pyrano[3,2-b]pyridin-2-yl)pyridin-3-yl)picolinamide] |  |  | 8.47 | 7.97
14 | N[C@@H]1C[C@H](c2ccncc2NC(=O)c2ccc(F)c(-c3c(F)cccc3F)n2)O[C@@H]2CCC[C@H]12 [Example 224, N-(4-((2R,4R,4aR,7aR)-4-aminooctahydrocyclopenta[b]pyran-2-yl)pyridin-3-yl)-6-(2,6-difluorophenyl)-5-fluoropicolinamide] | 10.00 | 8.39 |  | 
15 | N[C@@H]1C[C@H](c2ccncc2NC(=O)c2ccc(F)c(-c3c(F)cccc3F)n2)O[C@@H]2CCC[C@]12O [Example 210, N-(4-((2R,4R,4aS,7aR)-4-amino-4a-hydroxyoctahydrocyclopenta[b]pyran-2-yl)pyridin-3-yl)-6-(2,6-difluorophenyl)-5-fluoropicolinamide] |  |  | 9.30 | 8.62
16 | C[C@@H]1O[C@H](c2ccncc2NC(=O)c2nc(-c3ccccc3)cnc2N)C[C@H](O)[C@@]1(C)O [Example 86, 3-amino-N-(4-((2S,4S,5R,6S)-4,5-dihydroxy-5,6-dimethyltetrahydro-2H-pyran-2-yl)pyridin-3-yl)-6-phenylpyrazine-2-carboxamide] |  |  | 8.30 | 6.79
17 | C[C@H]1O[C@@H](c2ccncc2NC(=O)c2nc(-c3ccccc3)cnc2N)[C@H](F)[C@@H](O)[C@]1(C)O [Example 58, 3-amino-N-(4-((2S,3R,4S,5S,6R)-3-fluoro-4,5-dihydroxy-5,6-dimethyltetrahydro-2H-pyran-2-yl)pyridin-3-yl)-6-phenylpyrazine-2-carboxamide] |  |  | 8.05 | 6.56
18 | Nc1ncc(-c2ccccc2)nc1C(=O)Nc1cnccc1[C@@H]1C[C@H](O)[C@]2(O)CCCC[C@@H]2O1 [Example 176, 3-amino-N-(4-((2S,4S,4aR,8aS)-4,4a-dihydroxyoctahydro-2H-chromen-2-yl)pyridin-3-yl)-6-phenylpyrazine-2-carboxamide] |  |  | 7.20 | 5.74
19 | CC[C@]1(O)[C@H](O)C[C@H](c2ccncc2NC(=O)c2nc(-c3c(F)cccc3F)ncc2N)O[C@@H]1C [Example 143, 5-amino-2-(2,6-difluorophenyl)-N-(4-((2R,4R,5S,6R)-5-ethyl-4,5-dihydroxy-6-methyltetrahydro-2H-pyran-2-yl)pyridin-3-yl)pyrimidine-4-carboxamide] |  |  | 8.89 | 8.46
20 | Nc1cc(F)c(-c2c(F)cccc2F)nc1C(=O)Nc1cnccc1[C@H]1C[C@@H](N)[C@@]2(O)CCCC[C@H]2O1 [Example 238, 3-amino-N-(4-((2R,4R,4aS,8aR)-4-amino-4a-hydroxyoctahydro-2H-chromen-2-yl)pyridin-3-yl)-6-(2,6-difluorophenyl)-5-fluoropicolinamide] | 10.10 | 9.22 |  | 
21 | Nc1ncc(-c2ccccc2)nc1C(=O)Nc1cnccc1[C@H]1C[C@@H](O)[C@H](O)[C@@H](CCl)O1 [Example 36, 3-amino-N-(4-((2R,4R,5S,6S)-6-(chloromethyl)-4,5-dihydroxytetrahydro-2H-pyran-2-yl)pyridin-3-yl)-6-phenylpyrazine-2-carboxamide] |  |  | 9.00 | 8.10
22 | Nc1ncc(-c2ccccc2)nc1C(=O)Nc1cnccc1[C@H]1C[C@@H](O)[C@@]2(O)CCC[C@H]2O1 [Example 195, 3-amino-N-(4-((2R,4R,4aS,7aR)-4,4a-dihydroxyoctahydrocyclopenta[b]pyran-2-yl)pyridin-3-yl)-6-phenylpyrazine-2-carboxamide] |  |  | 8.66 | 7.92
